The record followed here is US7109351B1, “Fused pyrrolecarboxamides; GABA brain receptor ligands” (Neurogen Corporation, priority 1999, dated 2006).

This assay has as its target benzodiazepine site of the GABAA receptor. Description: GABAA receptor binding assay (displacement of 3H-Ro15-1788). Conditions: rat cortical tissue homogenate, 0.5 nM 3H-Ro15-1788 [3H-Flumazenil], 30 min at 4° C.

The structures appear in SMILES notation.

As a reminder, the Ki is the equilibrium dissociation constant of an inhibitor or competing ligand from its target. Low values mean tighter binding, high ones weaker binding. Take `CC1CC(=O)c2c(C(=O)Nc3ccc(OCCO)nc3)c[nH]c2C1` (stereo not shown) [Compound 15, N-[(2-Hydroxyethoxy)pyrid-5-yl]-4-oxo-6-methyl-4,5,6,7-tetrahydro-1H-indole-3-carboxamide]: the affinity corresponds to a Ki of 12 nM.
